The test system of data set [1] is esterases and amidases. The data set can be described thus: Selectivity: inhibition of a series of esterases and amidases. The following applies: selectivity panel. In kind it is biochemical.
Data set [2] concerns the target T1, human microsomal EH (Homo sapiens, UniProt P07099).
T1 sequence (P07099 1-455): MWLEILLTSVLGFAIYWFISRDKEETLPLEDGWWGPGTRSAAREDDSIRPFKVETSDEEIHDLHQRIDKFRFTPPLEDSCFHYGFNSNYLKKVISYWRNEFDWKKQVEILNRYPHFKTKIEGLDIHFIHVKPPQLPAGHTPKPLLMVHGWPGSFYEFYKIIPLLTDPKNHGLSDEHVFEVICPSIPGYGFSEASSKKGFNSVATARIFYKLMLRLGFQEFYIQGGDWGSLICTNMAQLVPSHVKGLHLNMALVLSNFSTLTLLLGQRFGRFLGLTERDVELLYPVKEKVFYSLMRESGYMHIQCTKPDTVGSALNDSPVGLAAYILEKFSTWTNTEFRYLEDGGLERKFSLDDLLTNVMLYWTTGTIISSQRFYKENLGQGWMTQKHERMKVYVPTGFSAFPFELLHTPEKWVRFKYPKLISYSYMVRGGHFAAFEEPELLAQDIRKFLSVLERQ
The experiment in a line: Selectivity: inhibition of microsomal EH. In kind it is biochemical. Conditions: selectivity panel.

For data set [3] the following is noted: human, cited from earlier work.
For data set [4], the target named is T2, sEH-phosphatase activity (Homo sapiens, UniProt P34913).
T2 sequence (P34913 1-555): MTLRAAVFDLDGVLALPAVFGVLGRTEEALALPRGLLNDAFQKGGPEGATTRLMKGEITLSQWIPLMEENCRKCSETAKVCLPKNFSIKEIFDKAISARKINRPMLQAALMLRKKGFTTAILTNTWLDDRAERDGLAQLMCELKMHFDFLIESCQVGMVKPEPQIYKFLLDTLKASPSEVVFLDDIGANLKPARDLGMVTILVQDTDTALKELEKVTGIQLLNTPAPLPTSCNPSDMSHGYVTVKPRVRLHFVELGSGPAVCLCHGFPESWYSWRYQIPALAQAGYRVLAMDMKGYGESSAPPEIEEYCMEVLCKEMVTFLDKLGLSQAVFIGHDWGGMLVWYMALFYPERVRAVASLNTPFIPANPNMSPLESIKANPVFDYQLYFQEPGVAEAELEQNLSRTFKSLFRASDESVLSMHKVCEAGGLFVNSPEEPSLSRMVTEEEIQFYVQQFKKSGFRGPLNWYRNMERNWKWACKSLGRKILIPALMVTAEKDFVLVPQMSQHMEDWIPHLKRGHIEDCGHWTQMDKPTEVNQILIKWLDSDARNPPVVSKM
The experiment in a line: Selectivity: inhibition of sEH-phosphatase activity. In kind it is biochemical. The following applies: selectivity panel.

Data set [5] concerns the target T3, human sEH (Homo sapiens, UniProt P34913).
T3 sequence (P34913 1-555): T2 sequence (P34913 1-555)
The data set can be described thus: Reversibility of inhibition: incubation with inhibitor, then dialysis. In kind it is biochemical. The following applies: 20 nM human sEH incubated with 10 μM inhibitor for 15 min, then dialyzed.

The test system of data set [6] is human alkaline phosphatase. The experiment in a line: Selectivity: inhibition of alkaline phosphatase. In kind it is biochemical. The following applies: selectivity panel.

Results on 1 compound are retold here after paper PMC3703951 (Bioorganic & medicinal chemistry letters, 2013).

Take `C[C@]12CC[C@@H]3c4ccc(O)cc4C[C@@H](CCCCCCCCC[S+]([O-])CCCC(F)(F)C(F)(F)F)[C@H]3[C@@H]1CC[C@@H]2O` (stereo partly shown) [fulvestrant]: the “Inhibition of a series of esterases and amidases” value in data set [1] is listed as “only inhibit the sEH”. For the same compound, the “Inhibition of human microsomal EH” value in data set [2] is recorded as “only inhibit the sEH”. For the same compound, the Stability in humans entry in data set [3] was “very stable”. Besides, the Blood concentration entry in data set [3] (for several weeks following intramuscular treatment) is on record as “around 10 nM”. The “Inhibition of sEH-phosphatase activity” value in data set [4] is reported as “only inhibit the sEH”. Moreover, the “sEH activity recovered after dialysis” value in data set [5] is reported as “more than 80%”. The “Inhibition of human alkaline phosphatase” value in data set [6] is given as “only inhibit the sEH”.
